Results from article PMC9317966, “Structure-function analysis of the AMPK activator SC4 and identification of a potent pan AMPK activator” (Biochemical Journal, 2022).

Columns and labels:
human GST-AMPK α2β1γ1 = molecular target: T1, human GST-AMPK α2β1γ1 (Homo sapiens, UniProt P54646+Q9Y478); test: Radiolabel SAMS kinase assay, GST-AMPK from HEK293T/17 cells immobilised on glutathione-Sepharose; format: biochemical; settings: 1 µM compound
T1 construct: triply transfected with full-length AMPK α1 or α2 (NH2-terminal GST fusion, pDEST27 vector); full-length AMPK α1 or α2 (NH2-terminal GST fusion, pDEST27 vector), β1 or β2 (COOH-terminal FLAG fusion, pcDNA3.1 vector); FLAG (C); made in house; host or cells: HEK293T/17 cells, transient triple transfection
Source text: (§1) We generated a series of compounds to investigate whether modification of the SC4 2-hydroxybiphenyl LHS fragment affects isoform selectivity, some of which (MSG008-MSG011) are presented in Table 1. We also synthesised compound MSG012 (example I-3-54 [32]), which was reported to activate α2β2γ1 with ∼100-fold greater potency compared with α1β1γ1. MSG012 differs from SC4 by substitution of the 2-hydroxyphenyl LHS fragment with 3-cyclohexen-4-yl-1-carboxylic acid, and 2-methylbenzoic acid RHS fragment with 1-hydroxy-N,N-dimethylcyclohexan-4-yl-1-carboxamide. Our initial screen involved measuring the activity of recombinant human GST-AMPK complexes expressed in HEK293T/17 cells and immobilised on glutathione-Sepharose (Supplementary Figure S1). Enzyme activity was measured by radiolabelling the synthetic SAMS peptide substrate in the absence or presence of 1 µM compound. Consistent with our previous characterisation, SC4 activated α1β1γ1, α2β1γ1 and α2β2γ1 >2.3-fold, and weakly activated α1β2γ1 1.3-fold (Figure 1A). […] The γ isoform had little influence on AMPK activation by MSG011 as most γ2 and γ3 complexes were activated >2.2-fold at 1 µM, with α1β2γ2 being the only exception (1.6-fold activation). […] Accordingly, MSG010, MSG011 and MSG012 can be classified as pan AMPK activators.
(§2) Adherent HEK293T/17 cells at ∼50% confluency were triply transfected with full-length AMPK α1 or α2 (NH2-terminal GST fusion, pDEST27 vector), β1 or β2 (COOH-terminal FLAG fusion, pcDNA3.1 vector), and γ1, γ2 or γ3 (NH2-terminal HA fusion, pMT2 vector) in the presence of FuGENE HD transfection reagent (Promega) as per the manufacturers protocol. Cells were harvested 48 hours post-transfection by first gently washing in ice cold phosphate buffered saline (PBS; Sigma–Aldrich), then scraping in ice cold lysis buffer (50 mM TRIS pH 7.5, 150 mM NaCl, 10% (v/v) glycerol, 50 mM NaF, 5 mM sodium pyrophosphate, 1% (v/v) Triton X-100, cOmplete protease inhibitor cocktail). Lysates were clarified by centrifugation (16 000g, 3 min, 4°C), flash frozen in liquid N2 and stored at −80°C until analysis. For radioactive kinase assays, AMPK was immobilised on glutathione Sepharose 4B resin (GE Healthcare) by incubation with lysates for 1.5 h at 4°C. Following centrifugation (1000g, 3 min, 4°C), the resin was washed twice in purification buffer (50 mM HEPES pH 7.4, 150 mM NaCl, 10% (v/v) glycerol, 0.02% (v/v) Tween-20), once in 50 mM HEPES pH 7.4 with 0.02% (v/v) Tween-20, then resuspended to a 50% slurry with 50 mM HEPES pH 7.4 and 10 µl added to the activity assays. For in solution kinase assays, α1β1γ1 AMPK was eluted from glutathione-Sepharose by incubating with purification buffer supplemented with 40 mM reduced glutathione (Sigma–Aldrich).
(§3) AMPK activity was determined by phosphorylation of the SAMS peptide (Purar Chemicals, sequence: NH2-HMRSAMSGLHLVKRR-COOH) in a 25 µl reaction volume containing 100 µM SAMS peptide, 5 mM MgCl2, 200 µM ATP, [γ-^32P]-ATP (PerkinElmer) and assay buffer (50 mM HEPES pH 7.4, 1 mM DTT and 0.02% (v/v) Tween-20) and purified AMPK. Phosphotransferase activity was conducted at 30°C for 10 min and reactions were quenched by spotting 15 µl onto phosphocellulose ion-exchange chromatography paper (made in-house), followed by repeated washes in 1% H3PO4 (Merck Millipore). Ultima Gold liquid scintillation fluid (5 ml; PerkinElmer) was added to vials containing dried phosphocellulose papers, and the level of ^32P-transfer to the SAMS peptide was determined using a Tri-Carb 2900TR liquid scintillation counter (PerkinElmer).

human GST-AMPK α1β2γ1 = molecular target: T2, human GST-AMPK α1β2γ1 (Homo sapiens, UniProt O43741+Q13131); test: as above; format: biochemical; settings: 1 µM compound
T2 construct: triply transfected with full-length AMPK α1 or α2 (NH2-terminal GST fusion, pDEST27 vector); full-length AMPK α1 or α2 (NH2-terminal GST fusion, pDEST27 vector), β1 or β2 (COOH-terminal FLAG fusion, pcDNA3.1 vector); FLAG (C); made in house; host or cells: HEK293T/17 cells, transient triple transfection
Source text: as §1, §2, §3

human GST-AMPK α2β2γ1 = molecular target: T3, human GST-AMPK α2β2γ1 (Homo sapiens, UniProt O43741+P54646); test: as above; format: biochemical; settings: 1 µM compound
T3 construct: triply transfected with full-length AMPK α1 or α2 (NH2-terminal GST fusion, pDEST27 vector); full-length AMPK α1 or α2 (NH2-terminal GST fusion, pDEST27 vector), β1 or β2 (COOH-terminal FLAG fusion, pcDNA3.1 vector); FLAG (C); made in house; host or cells: HEK293T/17 cells, transient triple transfection
Source text: as §1, §2, §3

human GST-AMPK α1β1γ1 = molecular target: T4, human GST-AMPK α1β1γ1 (Homo sapiens, UniProt Q13131+Q9Y478); test: as above; format: biochemical; settings: for fold AMPK activation relative to vehicle: 1 µM compound
T4 construct: triply transfected with full-length AMPK α1 or α2 (NH2-terminal GST fusion, pDEST27 vector); full-length AMPK α1 or α2 (NH2-terminal GST fusion, pDEST27 vector), β1 or β2 (COOH-terminal FLAG fusion, pcDNA3.1 vector); FLAG (C); made in house; host or cells: HEK293T/17 cells, transient triple transfection
Source text: as §1, §2, §3

γ1AMPK complexes = test: Radiolabel kinase assay, immobilised GST-tagged γ1AMPK (stated across γ1 complexes); format: biochemical, human
Source text: We directly compared in vitro potencies of pan activators by performing radiolabel kinase assays with γ1AMPK complexes. Initially, we used GST-tagged γ1AMPK expressed in HEK293T/17 cells and immobilised on glutathione-Sepharose (Figure 2 and Table 2). […] These assays used AMPK purified from Sf9 insect cells or E. coli that was pre-treated with CaMKK2. […] However, relative to immobilised GST-α2β1γ1 from HEK293T/17 cells, His-tagged and myristoylated α2β1γ1 AMPK (expressed in E. coli, CaMKK2-treated and assayed in solution) was at least 10-fold more sensitive to activation by both MK-8722 and MSG011 (Supplementary Figure S3B), indicating the GST-affinity tag or CaMKK2 treatment may exert some influence on sensitivity to these activators.
as §2
AMPK activity was determined by phosphorylation of the SAMS peptide (Purar Chemicals, sequence: NH2-HMRSAMSGLHLVKRR-COOH) in a 25 µl reaction volume containing 100 µM SAMS peptide, 5 mM MgCl2, 200 µM ATP, [γ-^32P]-ATP (PerkinElmer) and assay buffer (50 mM HEPES pH 7.4, 1 mM DTT and 0.02% (v/v) Tween-20) and purified AMPK. […] Ultima Gold liquid scintillation fluid (5 ml; PerkinElmer) was added to vials containing dried phosphocellulose papers, and the level of ^32P-transfer to the SAMS peptide was determined using a Tri-Carb 2900TR liquid scintillation counter (PerkinElmer).

α1β1γ1 AMPK = tested on: α1β1γ1 AMPK; set-up: method as in PMID 29657085; settings: α1β1γ1, in solution, mammalian cell-expressed AMPK; cited from earlier work
α1β2γ1 AMPK = tested on: α1β2γ1 AMPK; set-up: method as in PMID 29657085; settings: α1β2γ1, in solution, mammalian cell-expressed AMPK, cited from earlier work
α2β2γ1 AMPK = tested on: α2β2γ1 AMPK; set-up: method as in PMID 29657085; settings: α2β2γ1, in solution, mammalian cell-expressed AMPK; cited from earlier work
[1] = tested on: AMPK β1-Ser108 exchanged for Ala; set-up: method as in PMID 24352254, PMID 29657085; settings: cited from earlier work

T4 sequence (Q13131 whole entry, the tested form may be a part): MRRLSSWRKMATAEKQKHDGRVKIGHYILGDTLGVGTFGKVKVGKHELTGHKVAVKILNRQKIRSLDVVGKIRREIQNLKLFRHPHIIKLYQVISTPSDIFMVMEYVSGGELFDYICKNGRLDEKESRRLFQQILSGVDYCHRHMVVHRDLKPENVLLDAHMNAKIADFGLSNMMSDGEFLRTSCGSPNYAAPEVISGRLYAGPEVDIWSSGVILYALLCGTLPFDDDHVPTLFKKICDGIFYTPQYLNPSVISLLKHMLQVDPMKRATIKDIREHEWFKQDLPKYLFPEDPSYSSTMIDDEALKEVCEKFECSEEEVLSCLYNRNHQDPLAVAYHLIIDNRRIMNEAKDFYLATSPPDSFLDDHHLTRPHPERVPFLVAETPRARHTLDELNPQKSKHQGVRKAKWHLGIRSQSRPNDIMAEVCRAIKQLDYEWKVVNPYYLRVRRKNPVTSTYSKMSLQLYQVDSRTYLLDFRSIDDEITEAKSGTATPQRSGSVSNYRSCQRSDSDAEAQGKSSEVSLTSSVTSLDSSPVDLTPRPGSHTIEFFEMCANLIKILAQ
T4 sequence (Q9Y478 whole entry, the tested form may be a part): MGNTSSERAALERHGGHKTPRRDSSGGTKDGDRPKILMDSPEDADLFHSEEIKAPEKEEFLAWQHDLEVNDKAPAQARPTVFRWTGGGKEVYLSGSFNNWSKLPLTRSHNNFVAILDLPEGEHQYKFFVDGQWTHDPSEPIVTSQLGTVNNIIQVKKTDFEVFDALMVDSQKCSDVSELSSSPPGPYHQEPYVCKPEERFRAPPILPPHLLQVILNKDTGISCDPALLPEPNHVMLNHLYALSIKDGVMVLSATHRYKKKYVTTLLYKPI
T4 sequence (P54619 whole entry partner, the tested form may be a part): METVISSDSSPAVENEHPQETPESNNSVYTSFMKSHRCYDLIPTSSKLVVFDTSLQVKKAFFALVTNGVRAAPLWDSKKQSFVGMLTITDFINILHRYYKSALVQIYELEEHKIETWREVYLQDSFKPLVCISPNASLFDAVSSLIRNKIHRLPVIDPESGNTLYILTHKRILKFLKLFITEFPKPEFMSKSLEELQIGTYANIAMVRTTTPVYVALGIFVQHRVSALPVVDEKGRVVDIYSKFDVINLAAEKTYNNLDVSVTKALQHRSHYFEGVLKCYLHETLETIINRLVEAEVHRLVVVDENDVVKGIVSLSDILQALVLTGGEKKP
T2 sequence (Q13131 whole entry, the tested form may be a part): as the sequence (Q13131 whole entry, the tested form may be a part) above
T2 sequence (O43741 whole entry, the tested form may be a part): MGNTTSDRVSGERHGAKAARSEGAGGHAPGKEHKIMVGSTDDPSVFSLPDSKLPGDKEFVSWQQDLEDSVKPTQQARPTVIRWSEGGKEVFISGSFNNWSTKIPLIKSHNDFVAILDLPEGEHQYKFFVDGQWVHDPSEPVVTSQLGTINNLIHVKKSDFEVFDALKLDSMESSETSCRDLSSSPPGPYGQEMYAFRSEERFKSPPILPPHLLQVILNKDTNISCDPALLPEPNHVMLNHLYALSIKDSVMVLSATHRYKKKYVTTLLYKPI
T2 sequence (P54619 whole entry partner, the tested form may be a part): as the sequence (P54619 whole entry partner, the tested form may be a part) above
T3 sequence (P54646 whole entry, the tested form may be a part): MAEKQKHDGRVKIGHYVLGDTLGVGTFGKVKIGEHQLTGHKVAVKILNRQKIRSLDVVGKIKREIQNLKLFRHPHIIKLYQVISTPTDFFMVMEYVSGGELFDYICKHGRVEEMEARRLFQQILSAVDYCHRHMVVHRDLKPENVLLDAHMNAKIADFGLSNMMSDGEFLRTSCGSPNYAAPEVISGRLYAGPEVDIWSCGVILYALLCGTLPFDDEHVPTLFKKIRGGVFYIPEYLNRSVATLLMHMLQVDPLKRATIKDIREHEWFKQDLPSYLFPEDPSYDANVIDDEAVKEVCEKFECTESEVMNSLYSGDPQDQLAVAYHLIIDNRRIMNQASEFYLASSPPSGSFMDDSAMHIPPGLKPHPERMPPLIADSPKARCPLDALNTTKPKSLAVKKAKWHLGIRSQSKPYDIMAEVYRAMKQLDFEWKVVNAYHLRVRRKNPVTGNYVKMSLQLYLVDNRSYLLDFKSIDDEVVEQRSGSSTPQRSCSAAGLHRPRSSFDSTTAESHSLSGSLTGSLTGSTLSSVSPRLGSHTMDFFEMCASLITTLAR
T3 sequence (O43741 whole entry, the tested form may be a part): as the sequence (O43741 whole entry, the tested form may be a part) above
T3 sequence (P54619 whole entry partner, the tested form may be a part): as the sequence (P54619 whole entry partner, the tested form may be a part) above
T1 sequence (P54646 whole entry, the tested form may be a part): as the sequence (P54646 whole entry, the tested form may be a part) above
T1 sequence (Q9Y478 whole entry, the tested form may be a part): as the sequence (Q9Y478 whole entry, the tested form may be a part) above
T1 sequence (P54619 whole entry partner, the tested form may be a part): as the sequence (P54619 whole entry partner, the tested form may be a part) above

Cc1ccc(Oc2nc3nc(-c4ccc(C5=CCC(C(=O)O)CC5)cc4)c(Cl)cc3[nH]2)cc1C(=O)O (centres unmarked) [MSG010, 4′-(2-(3-carboxy-4-methylphenoxy)-6-chloro-1H-imidazo[4,5-b]pyridin-5-yl)-2,3,4,5-tetrahydro-[1,1′-biphenyl]-4-carboxylic acid]
fold AMPK activation relative to vehicle (human GST-AMPK α2β1γ1): > 2.2 fold
fold AMPK activation relative to vehicle (human GST-AMPK α1β2γ1): > 2.2 fold
fold AMPK activation relative to vehicle (human GST-AMPK α2β2γ1): > 2.2 fold
fold AMPK activation relative to vehicle (human GST-AMPK α1β1γ1): > 2.2 fold

OCC1(c2ccc(-c3cc4nc(O[C@@H]5CO[C@H]6[C@@H]5OC[C@H]6O)[nH]c4cc3Cl)cc2)CC1 [PF-739, reference compound]
EC50 fold higher than previously determined by high-throughput fluorescence-based assays in solution (γ1AMPK complexes; compared with refs 17, 18): 100–1000 fold
EC50 (γ1AMPK complexes; immobilised GST-γ1AMPK, read-out: EC50 values for γ1AMPK activation): 2000 nM
Max. fold activation (human GST-AMPK α1β1γ1; immobilised α1β1γ1): 1.7 fold
EC50 (human GST-AMPK α1β1γ1; immobilised α1β1γ1, 0–30 µM activator): 2010 nM

Cc1ccc(Oc2nc3nc(-c4ccc(-c5ccccc5O)cc4)c(Cl)cc3[nH]2)cc1C(=O)O [SC4]
EC50 (α1β1γ1 AMPK): 5.1 nM
Max. fold activation (α1β1γ1 AMPK): 2.9 fold
EC50 (α1β2γ1 AMPK; R2 for curve fit = 0.773): 28.6 nM
Max. fold activation (α1β2γ1 AMPK): 1.4 fold
EC50 (α2β2γ1 AMPK): 17.2 nM
Max. fold activation (α2β2γ1 AMPK): 2.5 fold
reduction of activating potency on loss of β1-Ser108 phosphorylation via exchange for Ala [1]: ~4 fold
fold AMPK activation relative to vehicle (human GST-AMPK α2β1γ1): > 2.3 fold
fold AMPK activation relative to vehicle (human GST-AMPK α1β2γ1): 1.3 fold
fold AMPK activation relative to vehicle (human GST-AMPK α2β2γ1): > 2.3 fold
fold AMPK activation relative to vehicle (human GST-AMPK α1β1γ1): > 2.3 fold

Cc1ccc(Oc2nc3cc(-c4ccc5c(ccn5C)c4)c(Cl)cc3[nH]2)cc1C(=O)O [compound 991]
reduction of activating potency on loss of β1-Ser108 phosphorylation via exchange for Ala [1]: 40 fold
